Test results reported in ChEMBL document CHEMBL1201862, “PubChem BioAssay data set” (2004).
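Exposure lasted 48 hours, with cells grown in 96-well plates and compounds tested at five concentrations. GI50 = concentration required for 50% inhibition of growth.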 Active and inactive are the calls of the source. Cut-off read from the data, not from the text of the source: active = GI50 up to about 1.1 µM and inactive = higher.

What was measured:
Experiment in all cases: inhibition of tumour cell growth, NCI panel, 48 h
Hs-578T = system: Hs-578T
BT-549 = system: BT-549
DLD-1 = system: DLD-1
HOP-18 = system: HOP-18
M19-MEL = system: M19-MEL
DMS-114 = system: DMS-114
XF498 = system: XF498
SNB-78 = system: SNB-78
RXF 631 = system: RXF 631

SMILES | GI50 (Hs-578T) | GI50 (BT-549) | other results
O=C(Nc1ccc(Nc2ccc3c(c2)C(=O)c2ccccc2C3=O)c2c1C(=O)c1ccccc1C2=O)c1ccccc1 | 32.4 µM (inactive) | > 100 µM (inactive) | 
O=C(O)CS(=O)(=O)C(c1ccccc1)c1ccccc1 | > 100 µM (inactive) | > 100 µM (inactive) | 
Cc1cn(CCCCCOC(=O)NC(CCCNC(N)=O)C(=O)O)c(=O)[nH]c1=O (centres undefined) | > 100 µM (inactive) | > 100 µM (inactive) | 
Nc1nn2c(=O)c3ccccc3nc2s1 | > 100 µM (inactive) | 22.6 µM (inactive) | 
CCOC(=O)/C=C/CCC(C)(C)COC(C)=O | > 10 µM (inactive) |  | 
OC1OC(c2ccc[nH]2)C(F)(F)C(F)(F)C1(F)F (centres undefined) | > 100 µM (inactive) | > 100 µM (inactive) | 
Cc1ccc(CC[PH](=O)CCc2ccc(C)nc2)cn1 | > 100 µM (inactive) |  | 
COC(=O)C1(c2cc3ccccc3n2S(=O)(=O)c2ccccc2)CC2C=CC1NC2 (centres undefined) |  | 2.36 µM (inactive) | 
CN1N=C(Nc2ccccc2)Sc2c1cnn(-c1ccccc1)c2=O |  |  | GI50 (DLD-1): > 100 µM (inactive); GI50 (HOP-18): 20 µM (inactive); GI50 (M19-MEL): > 100 µM (inactive); GI50 (DMS-114): 30.4 µM (inactive)
Cn1c(=O)c2ccccc2[n+]2c(-c3cccc([N+](=O)[O-])c3)csc12 | 18.7 µM (inactive) |  | 
COc1cc2c3c(c1Oc1nnnn1-c1ccccc1)-c1c(ccc4c1OCO4)C[C@H]3N(C)CC2 | 28.4 µM (inactive) |  | 
CC1(C)CC(=O)C(CC2C(=O)CCCC2=O)C(=O)C1 |  |  | GI50 (DLD-1): > 100 µM (inactive); GI50 (XF498): 33.2 µM (inactive); GI50 (SNB-78): > 100 µM (inactive); GI50 (HOP-18): > 100 µM (inactive); GI50 (M19-MEL): > 100 µM (inactive); GI50 (DMS-114): > 100 µM (inactive)
C=CCOC(=O)N1c2ccc(O[Si](C)(C)C(C)(C)C)cc2[C@@]23O[C@@]24[C@@H]1C#C/C=C\C#C[C@]3(O)C(OC)(OC)C[C@@H]4C | 37.8 µM (inactive) | > 100 µM (inactive) | 
O=c1[nH]c(=S)c2cc3c(=S)[nH]c(=O)n(CCC(c4ccccc4)(c4ccccc4)c4ccccc4)c3nc2n1CCC(c1ccccc1)(c1ccccc1)c1ccccc1 |  | > 100 µM (inactive) | 
COc1cc(C2[C@H]3C(=O)N(c4ccc(Cc5ccc(N6C(=O)[C@@H]7ON(c8ccccc8)C(c8cc(OC)c(OC)c(OC)c8)[C@@H]7C6=O)cc5)cc4)C(=O)[C@H]3ON2c2ccccc2)cc(OC)c1OC (some centres undefined) |  |  | GI50 (DLD-1): > 100 µM (inactive); GI50 (RXF 631): > 100 µM (inactive); GI50 (SNB-78): > 100 µM (inactive); GI50 (HOP-18): > 100 µM (inactive); GI50 (M19-MEL): > 100 µM (inactive); GI50 (DMS-114): > 100 µM (inactive)
COc1cc(CC2c3cc(OC)c(OC)cc3CCN2C)c(Oc2cc3c(cc2OC)-c2c(O)c(OC)cc4c2C(C3)N(C)CC4)cc1OC (centres undefined) | 18.2 µM (inactive) | 14.8 µM (inactive) | 
OCCCc1cc(O)c2c(c1)C(CO)C(c1ccc(O)c(O)c1)O2 (centres undefined) | > 100 µM (inactive) | > 100 µM (inactive) | 
ClCc1nc2cc(Cl)ccc2o1 | 13.7 µM (inactive) | 14.3 µM (inactive) | 
O=C(Nc1cccc(C(F)(F)F)c1)O/N=C(/Cl)CCl | > 100 µM (inactive) |  | 

SMILES | GI50 (Hs-578T) | GI50 (BT-549) | other results
CCc1cc2c(oc3c4ccccc4ccc23)c(=O)[nH]1 | > 10 µM (inactive) | > 10 µM (inactive) | 
COc1cc2c(c(OC)c1OC)C(=O)CC2N (centres undefined) | > 100 µM (inactive) | > 100 µM (inactive) | 
O=C1CCCC2(c3ccccc3)Nc3ccccc3N12 (centres undefined) | > 100 µM (inactive) | > 100 µM (inactive) | 
CC(C)CCC[C@@H](C)[C@H]1CC[C@H]2[C@@H]3CC[C@H]4C[C@H](N)CC[C@]4(C)[C@H]3CC[C@]12C | 20 µM (inactive) | 23.1 µM (inactive) | 
Cc1cc2c(cc1-c1cc3c(cc1C)C(C(C)C)=C(O)C(=O)/C3=C\Nc1cccc3c(N)cccc13)/C(=C/Nc1cccc3c(N)cccc13)C(=O)C(O)=C2C(C)C | > 100 µM (inactive) | > 100 µM (inactive) | 
COc1cccc([C@@]2(O)c3c(ccc(O)c3OC)[C@H]2OC)c1OC |  |  | GI50 (DLD-1): 35.7 µM (inactive); GI50 (SNB-78): 49.7 µM (inactive)
CC1=NN(c2nc(N)nc(NS(=O)(=O)c3cc(C)c(Cl)cc3S)n2)C(C)(C)C1 | > 10 µM (inactive) | > 10 µM (inactive) | 
CC1=Nc2c(C#N)ncn2N=C(C)C1 | > 100 µM (inactive) | > 100 µM (inactive) | 
CN(C)CCNS(=O)(=O)N(C)C | > 100 µM (inactive) | > 100 µM (inactive) | 
COC1OC(C(=O)O)C2OC(C)(C)OC12 (centres undefined) |  | > 100 µM (inactive) | 
O=S(=O)(/N=S(/Nc1ccccc1)C(F)(F)Cl)c1ccccc1 (centres undefined) | > 100 µM (inactive) |  | 
CCN(CC)CCNc1ccc([N+](=O)[O-])c2nc3ccc(OC)cc3c(N)c12 | 1.27 µM (inactive) | 1.4 µM (inactive) | 
Cc1ccc(/N=C2\SC(=S)N(CCC[N+](C)(C)C)\C2=N/c2ccc(C)cc2)cc1 | 4.08 µM (inactive) | 4.22 µM (inactive) | 
C1CNOCCCONCCCNOCCCONC1 | 59.3 µM (inactive) | 69.5 µM (inactive) | 
CC(C)CCCC(C)[C@H]1CC[C@H]2n3c(nnc3-c3ccccc3)CCC[C@]12C (some centres undefined) | 18.4 µM (inactive) | 19.8 µM (inactive) | 
Cc1c(O)c(OC2OC(CO)C(O)C(O)C2O)cc2c1C=C[C@@H]1[C@@]2(C)C(=O)C[C@]2(C)[C@@H]([C@@](C)(O)C(=O)CCC(C)(C)O)[C@H](O)C[C@@]12C (some centres undefined) |  | 26.9 µM (inactive) | 
CN(C)c1ccc(/C=C2\N=C(NNc3ccccc3)NC2=O)cc1 | 35 µM (inactive) | 30 µM (inactive) | 
O=C(N/N=C/c1ccccc1O)c1cccc([N+](=O)[O-])c1 |  |  | GI50 (DLD-1): 45.7 µM (inactive); GI50 (XF498): 92.3 µM (inactive); GI50 (SNB-78): > 86.3 µM (inactive); GI50 (HOP-18): 28.5 µM (inactive); GI50 (M19-MEL): 12.9 µM (inactive); GI50 (DMS-114): 3.65 µM (inactive)
Cc1ccccc1C(=O)Oc1ccc(Oc2ccccc2)cc1 |  |  | GI50 (DLD-1): > 100 µM (inactive); GI50 (XF498): > 100 µM (inactive); GI50 (SNB-78): > 100 µM (inactive); GI50 (HOP-18): > 100 µM (inactive); GI50 (M19-MEL): > 100 µM (inactive); GI50 (DMS-114): > 100 µM (inactive)
